By IC50 is commonly meant the midpoint of a concentration-inhibition curve. Low values mean greater potency in that assay, high ones weaker potency in that assay.

Here are results for one compound from US10512632B2, “1 H-pyrazolo[4,3-B]pyridines as PDE1 inhibitors” (priority 2016, dated 2019).

One assay concerns the target PDE1B (Homo sapiens (Human), UniProt Q01064). Briefly: PDE1 inhibition assay (PDE1B), SPA with tritium labelled cAMP. It counts as biochemical. The settings on record: 15 nM tritium labelled cAMP, 1 hr at room temperature. The text has this: (§1) Table 1 lists the IC50 value for inhibition of PDE1 by the compounds of the invention. […] PDE1 assays are described in the Experimental Section.

The target in the next assay is PDE1A (Homo sapiens (Human), UniProt P54750). The experiment in a line: PDE1 inhibition assay (PDE1A), SPA with tritium labelled cAMP. It counts as biochemical. To be noted: 15 nM tritium labelled cAMP, 1 hr at room temperature.
Sequence of PDE1A (P54750 whole entry): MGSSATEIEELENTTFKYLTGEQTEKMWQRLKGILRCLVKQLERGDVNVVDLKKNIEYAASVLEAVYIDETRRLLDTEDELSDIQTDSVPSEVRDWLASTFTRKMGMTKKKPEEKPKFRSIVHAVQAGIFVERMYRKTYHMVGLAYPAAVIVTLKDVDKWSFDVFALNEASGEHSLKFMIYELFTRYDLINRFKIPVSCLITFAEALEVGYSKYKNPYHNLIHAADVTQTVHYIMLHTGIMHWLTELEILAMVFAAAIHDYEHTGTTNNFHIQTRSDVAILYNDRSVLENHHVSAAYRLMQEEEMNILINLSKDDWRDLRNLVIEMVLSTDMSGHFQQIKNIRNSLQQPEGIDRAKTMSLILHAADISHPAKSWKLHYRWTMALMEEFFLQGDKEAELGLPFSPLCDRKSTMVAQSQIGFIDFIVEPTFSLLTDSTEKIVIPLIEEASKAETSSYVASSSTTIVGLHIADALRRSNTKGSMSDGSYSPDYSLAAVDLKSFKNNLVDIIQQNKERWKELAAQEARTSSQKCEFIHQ
Source text: as §1

Sequence of PDE1B (Q01064 whole entry): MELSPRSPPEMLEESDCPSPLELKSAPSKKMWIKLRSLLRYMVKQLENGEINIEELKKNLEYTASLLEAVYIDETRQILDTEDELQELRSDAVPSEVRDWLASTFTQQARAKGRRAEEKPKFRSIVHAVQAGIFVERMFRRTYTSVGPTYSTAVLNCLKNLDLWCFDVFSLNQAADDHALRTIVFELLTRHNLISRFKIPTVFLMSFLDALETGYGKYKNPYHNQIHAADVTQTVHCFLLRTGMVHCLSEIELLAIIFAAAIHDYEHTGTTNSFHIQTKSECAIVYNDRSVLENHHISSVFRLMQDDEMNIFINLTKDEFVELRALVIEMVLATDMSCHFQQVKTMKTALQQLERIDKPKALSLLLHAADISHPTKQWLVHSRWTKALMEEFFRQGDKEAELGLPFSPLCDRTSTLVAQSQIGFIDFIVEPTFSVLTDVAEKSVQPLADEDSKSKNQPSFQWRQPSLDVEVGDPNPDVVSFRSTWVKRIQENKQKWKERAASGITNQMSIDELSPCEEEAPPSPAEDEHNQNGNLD

As for `CCOc1ncccc1-c1cc(NCc2ccncc2OC)c2c(n1)c(C)nn2C(C)C` [Example 172, 5-(2-ethoxy-3-pyridyl)-1-isopropyl-N-[(3-methoxy-4-pyridyl)methyl]-3-methyl-pyrazolo[4,3-b]pyridin-7-amine], the values for the half-inhibitory concentration (IC50) against PDE1B and against PDE1A were 5.5 nM and 40 nM, respectively.
